≈ marks a conversion by molar mass, not a printed value.
Legend:
Type in all cases: functional
[1] = organism: Rattus norvegicus; assay: Antiovulatory activity expressed as ratio of rats ovulated/total rats at a dose of 0.5 microg; 5/5
[2] = organism: Rattus norvegicus; assay: Evaluated for histamine releasing activity
[3] = organism: Rattus norvegicus; assay: Antiovulatory activity expressed as ratio of rats ovulated/total rats at a dose of 1.0 ug; […]
[4] = organism: Rattus norvegicus; assay: Antiovulatory activity expressed as ratio of rats ovulated/total rats at a dose of 0.5 microg; 2/9
[5] = organism: Rattus norvegicus; assay: Antiovulatory activity expressed as ratio of rats ovulated/total rats at a dose of 1.0 ug; 1/6
[6] = organism: Rattus norvegicus; assay: Antiovulatory activity expressed as ratio of rats ovulated/total rats at a dose of 0.5 microg; 3/13
[7] = organism: Rattus norvegicus; assay: Antiovulatory activity expressed as ratio of rats ovulated/total rats at a dose of 0.5 microg; 6/6
[8] = organism: Rattus norvegicus; assay: Antiovulatory activity expressed as ratio of rats ovulated/total rats at a dose of 0.5 microg; 7/7
[9] = organism: Rattus norvegicus; assay: Antiovulatory activity expressed as ratio of rats ovulated/total rats at a dose of 1.0 ug
[10] = organism: Rattus norvegicus; assay: Antiovulatory activity expressed as ratio of rats ovulated/total rats at a dose of 0.25 microg; 6/8
[11] = organism: Rattus norvegicus; assay: Antiovulatory activity expressed as ratio of rats ovulated/total rats at a dose of 0.5 microg; 0/8
[12] = organism: Rattus norvegicus; assay: Antiovulatory activity expressed as ratio of rats ovulated/total rats at a dose of 0.5 microg; 3/5
[13] = organism: Rattus norvegicus; assay: Antiovulatory activity expressed as ratio of rats ovulated/total rats at a dose of 0.5 microg; 2/6
[14] = organism: Rattus norvegicus; assay: Antiovulatory activity expressed as ratio of rats ovulated/total rats at a dose of 0.5 microg; 5/6
[15] = organism: Rattus norvegicus; assay: Antiovulatory activity expressed as ratio of rats ovulated/total rats at a dose of 0.5 microg; 4/6

## CC(C)C[C@H](NC(=O)[C@@H](CCCCNC(=O)c1ccc(N)nc1)NC(=O)[C@H](CCCCNC(=O)c1ccccn1)NC(=O)[C@@H](NC(=O)[C@@H](Cc1cccnc1)NC(=O)[C@@H](Cc1ccc(Cl)cc1)NC(=O)[C@H](N)Cc1ccc2ccccc2c1)[C@@H](C)O)C(=O)N[C@@H](CCCN=C(N)N)C(=O)N1CCC[C@H]1C(=O)N[C@H](C)C(=O)O
[1]
  Ratio: 5

## CC(=O)N[C@H](Cc1ccc2ccccc2c1)C(=O)N[C@H](Cc1ccc(Cl)cc1)C(=O)N[C@H](Cc1cccnc1)C(=O)N[C@@H](CO)C(=O)N[C@@H](CCCCNC(=O)c1cccnc1)C(=O)N[C@H](CCCCNC(=O)c1cnccn1)C(=O)N[C@@H](CC(C)C)C(=O)N[C@@H](CCCCN)C(=O)N1CCC[C@H]1C(=O)N[C@H](C)C(=O)O
[2]
  ED50: 263 µg/mL (≈ 170 µM)
[3]
  Ratio: 1
[4]
  Ratio: 2

## CC(=O)N[C@H](Cc1ccc2ccccc2c1)C(=O)N[C@H](Cc1ccc(Cl)cc1)C(=O)N[C@H](Cc1cccnc1)C(=O)N[C@@H](CO)C(=O)N[C@@H](CCCCNC(=O)c1ccccn1)C(=O)N[C@H](CCCCNC(=O)c1nccnc1N)C(=O)N[C@@H](CC(C)C)C(=O)N[C@@H](CCCCNC(C)C)C(=O)N1CCC[C@H]1C(=O)N[C@H](C)C(=O)O
[2]
  ED50: 100 µg/mL (≈ 62.2 µM)
[5]
  Ratio: 1
[6]
  Ratio: 3

## CC(=O)N[C@H](Cc1ccc2ccccc2c1)C(=O)N[C@H](Cc1ccc(Cl)cc1)C(=O)N[C@H](Cc1cccnc1)C(=O)N[C@@H](CO)C(=O)N[C@@H](CCCCNC(=O)c1ccccn1)C(=O)N[C@H](CCCCNC(=O)c1cnccn1)C(=O)N[C@@H](CC(C)C)C(=O)N[C@@H](CCCCN)C(=O)N1CCC[C@H]1C(=O)N[C@H](C)C(=O)O
[7]
  Number of rats ovulated: 6

## CC(=O)N[C@H](Cc1ccc2ccccc2c1)C(=O)N[C@H](Cc1ccc(Cl)cc1)C(=O)N[C@H](Cc1cccnc1)C(=O)N[C@@H](CO)C(=O)N[C@@H](CCCCNC(=O)c1ccccn1)C(=O)N[C@H](CCCCNC(=O)c1cccnc1N)C(=O)N[C@@H](CC(C)C)C(=O)N[C@@H](CCCN=C(N)N)C(=O)N1CCC[C@H]1C(=O)N[C@H](C)C(=O)O
[8]
  Number of rats ovulated: 7

## CC(=O)N[C@H](Cc1ccc2ccccc2c1)C(=O)N[C@H](Cc1ccc(Cl)cc1)C(=O)N[C@H](Cc1cccnc1)C(=O)N[C@@H](CO)C(=O)N[C@@H](CCCCNC(=O)c1ccc(N)nc1)C(=O)N[C@H](CCCCNC(=O)c1ccc(N)nc1)C(=O)N[C@@H](CC(C)C)C(=O)N[C@@H](CCCCNC(C)C)C(=O)N1CCC[C@H]1C(=O)N[C@H](C)C(=O)O
[8]
  Number of rats ovulated: 7

## CC(=O)N[C@H](Cc1ccc2ccccc2c1)C(=O)N[C@H](Cc1ccc(Cl)cc1)C(=O)N[C@H](Cc1cccnc1)C(=O)N[C@@H](CO)C(=O)N[C@@H](CCCCNC(=O)c1cccc(N)n1)C(=O)N[C@H](CCCCNC(=O)c1cccc(N)n1)C(=O)N[C@@H](CC(C)C)C(=O)N[C@@H](CCCN=C(N)N)C(=O)N1CCC[C@H]1C(=O)N[C@H](C)C(=O)O
[7]
  Number of rats ovulated: 6

## CC(=O)N[C@H](Cc1ccc2ccccc2c1)C(=O)N[C@H](Cc1ccc(Cl)cc1)C(=O)N[C@H](Cc1cccnc1)C(=O)N[C@@H](CO)C(=O)N[C@@H](CCCCNC(=O)c1ccccn1)C(=O)N[C@H](CCCCNC(=O)c1nccnc1N)C(=O)N[C@@H](CC(C)C)C(=O)N[C@@H](CCCN=C(N)N)C(=O)N1CCC[C@H]1C(=O)N[C@H](C)C(=O)O
[7]
  Number of rats ovulated: 6

## CC(=O)N[C@H](Cc1ccc2ccccc2c1)C(=O)N[C@H](Cc1ccc(Cl)cc1)C(=O)N[C@H](Cc1cccnc1)C(=O)N[C@@H](CO)C(=O)N[C@@H](CCCCNC(=O)c1ccccn1)C(=O)N[C@H](CCCNC(=O)c1ccc(N)nc1)C(=O)N[C@@H](CC(C)C)C(=O)N[C@@H](CCCN=C(N)N)C(=O)N1CCC[C@H]1C(=O)N[C@H](C)C(=O)O
[2]
  ED50: 100 µg/mL (≈ 63.3 µM)
[9]
  Ratio: 0
[10]
  Ratio: 6
[11]
  Ratio: 0

## CC(C)C[C@H](NC(=O)[C@@H](CCCCNC(=O)c1ccc(N)nc1)NC(=O)[C@H](Cc1ccc(O)cc1)NC(=O)[C@H](CO)NC(=O)[C@@H](Cc1cccnc1)NC(=O)[C@@H](Cc1ccc(Cl)cc1)NC(=O)[C@H](N)Cc1ccc2ccccc2c1)C(=O)N[C@@H](CCCN=C(N)N)C(=O)N1CCC[C@H]1C(=O)N[C@H](C)C(=O)O
[12]
  Ratio: 3

## CC(=O)N[C@H](Cc1ccc2ccccc2c1)C(=O)N[C@H](Cc1ccc(Cl)cc1)C(=O)N[C@H](Cc1cccnc1)C(=O)N[C@@H](CO)C(=O)N[C@@H](CCCCNC(=O)c1ccccn1)C(=O)N[C@H](CCCCNC(=O)c1cccc(N)n1)C(=O)N[C@@H](CC(C)C)C(=O)N[C@@H](CCCN=C(N)N)C(=O)N1CCC[C@H]1C(=O)N[C@H](C)C(=O)O
[13]
  Ratio: 2

## CC(=O)N[C@H](Cc1ccc2ccccc2c1)C(=O)N[C@H](Cc1ccc(Cl)cc1)C(=O)N[C@H](Cc1cccnc1)C(=O)N[C@@H](CO)C(=O)N[C@@H](CCCNC(=O)c1cnccn1)C(=O)N[C@H](CCCCNC(=O)c1ccc(N)nc1)C(=O)N[C@@H](CC(C)C)C(=O)N[C@@H](CCCN=C(N)N)C(=O)N1CCC[C@H]1C(=O)N[C@H](C)C(=O)O
[7]
  Number of rats ovulated: 6

## CC(=O)N[C@H](Cc1ccc2ccccc2c1)C(=O)N[C@H](Cc1ccc(Cl)cc1)C(=O)N[C@H](Cc1cccnc1)C(=O)N[C@@H](CO)C(=O)N[C@@H](CCCCNC(=O)c1cnccn1)C(=O)N[C@H](CCCCNC(=O)c1cnccn1)C(=O)N[C@@H](CC(C)C)C(=O)N[C@@H](CCCCN)C(=O)N1CCC[C@H]1C(=O)N[C@H](C)C(=O)O
[14]
  Ratio: 5

## CC(=O)N[C@H](Cc1ccc2ccccc2c1)C(=O)N[C@H](Cc1ccc(Cl)cc1)C(=O)N[C@H](Cc1cccnc1)C(=O)N[C@@H](CO)C(=O)N[C@@H](CCCCNC(=O)c1cccc(N)n1)C(=O)N[C@H](CCCCNC(=O)c1cccc(N)n1)C(=O)N[C@@H](CC(C)C)C(=O)N[C@@H](CCCCNC(C)C)C(=O)N1CCC[C@H]1C(=O)N[C@H](C)C(=O)O
[8]
  Number of rats ovulated: 7

## CC(=O)N[C@H](Cc1ccc2ccccc2c1)C(=O)N[C@H](Cc1ccc(Cl)cc1)C(=O)N[C@H](Cc1cccnc1)C(=O)N[C@@H](CO)C(=O)N[C@@H](CCCCNC(=O)c1ccccn1)C(=O)N[C@H](CCCCNC(=O)c1ncccc1N)C(=O)N[C@@H](CC(C)C)C(=O)N[C@@H](CCCCNC(C)C)C(=O)N1CCC[C@H]1C(=O)N[C@H](C)C(=O)O
[15]
  Ratio: 4

## CC(=O)N[C@H](Cc1ccc2ccccc2c1)C(=O)N[C@H](Cc1ccc(Cl)cc1)C(=O)N[C@H](Cc1cccnc1)C(=O)N[C@@H](CO)C(=O)N[C@@H](CCCCNC(=O)c1cccnc1N)C(=O)N[C@H](CCCCNC(=O)c1cccnc1N)C(=O)N[C@@H](CC(C)C)C(=O)N[C@@H](CCCCNC(C)C)C(=O)N1CCC[C@H]1C(=O)N[C@H](C)C(=O)O
[8]
  Number of rats ovulated: 7

## CNC[C@@H](NC(=O)[C@@H]1CCCN1C(=O)[C@H](CCCN=C(N)N)NC(=O)[C@H](CC(C)C)NC(=O)[C@@H](CCCCNC(=O)c1ccc(N)nc1)NC(=O)[C@H](CCCCNC(=O)c1ccccn1)NC(=O)[C@H](CO)NC(=O)[C@@H](Cc1cccnc1)NC(=O)[C@@H](Cc1ccc(Cl)cc1)NC(=O)[C@H](N)Cc1ccc2ccccc2c1)C(=O)O
[2]
  ED50: 31 µg/mL (≈ 19.6 µM)
[9]
  Ratio: 0
[10]
  Ratio: 6
[11]
  Ratio: 0

## CC(=O)N[C@H](Cc1ccc2ccccc2c1)C(=O)N[C@H](Cc1ccc(Cl)cc1)C(=O)N[C@H](Cc1cccnc1)C(=O)N[C@@H](CO)C(=O)N[C@@H](CCCCNC(=O)c1ccc(N)nc1)C(=O)N[C@H](CCCCNC(=O)c1ccc(N)nc1)C(=O)N[C@@H](CC(C)C)C(=O)N[C@@H](CCCN=C(N)N)C(=O)N1CCC[C@H]1C(=O)N[C@H](C)C(=O)O
[7]
  Number of rats ovulated: 6

## CC(=O)N[C@H](Cc1cnc2ccccc2c1)C(=O)N[C@H](Cc1ccc(Cl)cc1)C(=O)N[C@H](Cc1cccnc1)C(=O)N[C@@H](CO)C(=O)N[C@@H](CCCNC(=O)c1cnccn1)C(=O)N[C@H](CCCNC(=O)c1ccc(N)nc1)C(=O)N[C@@H](CC(C)C)C(=O)N[C@@H](CCCN=C(N)N)C(=O)N1CCC[C@H]1C(=O)N[C@H](C)C(=O)O
[1]
  Ratio: 5

## CC(=O)N[C@H](Cc1ccc2ccccc2c1)C(=O)N[C@H](Cc1ccc(Cl)cc1)C(=O)N[C@H](Cc1cccnc1)C(=O)N[C@@H](CO)C(=O)N[C@@H](CCCCNC(=O)c1nccnc1N)C(=O)N[C@H](CCCCNC(=O)c1nccnc1N)C(=O)N[C@@H](CC(C)C)C(=O)N[C@@H](CCCN=C(N)N)C(=O)N1CCC[C@H]1C(=O)N[C@H](C)C(=O)O
[15]
  Ratio: 4

## C[C@@H](NC(=O)[C@@H]1CCCN1C(=O)[C@H](CCCN=C(N)N)NC(=O)[C@H](Cc1c[nH]cn1)NC(=O)[C@@H](CCCCNC(=O)c1ccc(N)nc1)NC(=O)[C@H](CCCCNC(=O)c1ccccn1)NC(=O)[C@H](CO)NC(=O)[C@@H](Cc1cccnc1)NC(=O)[C@@H](Cc1ccc(Cl)cc1)NC(=O)[C@H](N)Cc1ccc2ccccc2c1)C(=O)O
[7]
  Number of rats ovulated: 6

## CC(=O)N[C@H](Cc1ccc2ccccc2c1)C(=O)N[C@H](Cc1ccc(Cl)cc1)C(=O)N[C@H](Cc1cccnc1)C(=O)N[C@@H](CO)C(=O)N[C@@H](CCCCNC(=O)c1cnccn1)C(=O)N[C@H](CCCCNC(=O)c1cccnc1)C(=O)N[C@@H](CC(C)C)C(=O)N[C@@H](CCCCN)C(=O)N1CCC[C@H]1C(=O)N[C@H](C)C(=O)O
[7]
  Number of rats ovulated: 6

## CC(=O)N[C@H](Cc1ccc2ccccc2c1)C(=O)N[C@H](Cc1ccc(Cl)cc1)C(=O)N[C@H](Cc1cccnc1)C(=O)N[C@@H](CO)C(=O)N[C@@H](CCCCNC(=O)c1cccnc1N)C(=O)N[C@H](CCCCNC(=O)c1cccnc1N)C(=O)N[C@@H](CC(C)C)C(=O)N[C@@H](CCCN=C(N)N)C(=O)N1CCC[C@H]1C(=O)N[C@H](C)C(=O)O
[7]
  Number of rats ovulated: 6
